HELM strings list units from the 5' end as sugar, base in round brackets, then linkage (d deoxyribose, r ribose, m 2'-O-methyl, p phosphodiester). Strings are as the collection lists them; they lack the last nucleoside at the 3' end of the tested compound. [moe] = 2'-O-(2-methoxyethyl) (MOE); [sp] = phosphorothioate linkage; [m5C] = 5-methylcytosine

The series addresses C9ORF72. The series is described as follows: mouse, dose not given. As to conditions: ASO.
The substance “RNA1{[moe](T)[sp].[moe]([m5C])p.[moe](T)p.[moe](G)p.[moe](T)p.[moe]([m5C])p.[moe](T)[sp].d(T)[sp].d(T)[sp].d(G)[sp].d(G)[sp].d(A)[sp].d(G)[sp].d([m5C])[sp].d([m5C])[sp].[moe]([m5C])[sp].[moe](A)}$$$$ (last 3' nucleoside missing)” came in with a 3 h FOB score of 6.25 score 0-7. Regarding “RNA1{[moe](T)[sp].[moe]([m5C])p.[moe](T)p.[moe](G)p.[moe](T)p.[moe]([m5C])p.[moe](T)p.d(T)[sp].d(T)[sp].d(G)[sp].d(G)[sp].d(A)[sp].d(G)[sp].d([m5C])[sp].d([m5C])[sp].d([m5C])[sp].d(A)[sp].[moe](A)[sp].[moe](A)}$$$$ (last 3' nucleoside missing)”, the 3 h FOB score was found to be 2 score 0-7. The same measure for “RNA1{[moe](T)[sp].[moe]([m5C])p.[moe](T)p.[moe](G)p.[moe](T)p.[moe]([m5C])p.d(T)[sp].d(T)[sp].d(T)[sp].d(G)[sp].d(G)[sp].d(A)[sp].d(G)[sp].d([m5C])[sp].d([m5C])[sp].d([m5C])[sp].[moe](A)p.[moe](A)[sp].[moe](A)}$$$$ (last 3' nucleoside missing)”: 4.25 score 0-7; for “RNA1{[moe](T)[sp].[moe]([m5C])p.[moe](T)p.[moe](G)p.d(T)[sp].d([m5C])[sp].d(T)[sp].d(T)[sp].d(T)[sp].d(G)[sp].d(G)[sp].d(A)[sp].d(G)[sp].d([m5C])[sp].[moe]([m5C])p.[moe]([m5C])p.[moe](A)p.[moe](A)[sp].[moe](A)}$$$$ (last 3' nucleoside missing)”: 6.75 score 0-7. Then “RNA1{[moe](T)[sp].[moe]([m5C])p.[moe](T)p.d(G)[sp].d(T)[sp].d([m5C])[sp].d(T)[sp].d(T)[sp].d(T)[sp].d(G)[sp].d(G)[sp].d(A)[sp].d(G)[sp].[moe]([m5C])p.[moe]([m5C])p.[moe]([m5C])p.[moe](A)p.[moe](A)[sp].[moe](A)}$$$$ (last 3' nucleoside missing)”, with 6.75 score 0-7; and “RNA1{[moe]([m5C])[sp].[moe](A)p.[moe](G)p.[moe](G)[sp].d([m5C])[sp].d(T)[sp].d(G)[sp].d([m5C])[sp].d(G)[sp].d(G)[sp].d(T)[sp].d(T)[sp].[moe](G)p.[moe](T)p.[moe](T)p.[moe](T)[sp].[moe]([m5C])}$$$$ (last 3' nucleoside missing)”, with 3.5 score 0-7; and “RNA1{[moe]([m5C])[sp].[moe](A)p.[moe](G)p.[moe](G)p.[moe]([m5C])p.[moe](T)[sp].d(G)[sp].d([m5C])[sp].d(G)[sp].d(G)[sp].d(T)[sp].d(T)[sp].d(G)[sp].d(T)[sp].[moe](T)p.[moe](T)[sp].[moe]([m5C])}$$$$ (last 3' nucleoside missing)”, with 4.5 score 0-7. In turn, “RNA1{[moe]([m5C])[sp].[moe](A)p.[moe](G)p.[moe](G)p.[moe]([m5C])p.[moe](T)p.d(G)[sp].d([m5C])[sp].d(G)[sp].d(G)[sp].d(T)[sp].d(T)[sp].d(G)[sp].d(T)[sp].d(T)[sp].[moe](T)p.[moe]([m5C])[sp].[moe]([m5C])}$$$$ (last 3' nucleoside missing)” returned a 3 h FOB score of 6 score 0-7. For “RNA1{[moe]([m5C])[sp].[moe](A)p.[moe](G)p.[moe](G)p.[moe]([m5C])p.[moe](T)p.d(G)[sp].d([m5C])[sp].d(G)[sp].d(G)[sp].d(T)[sp].d(T)[sp].d(G)[sp].d(T)[sp].d(T)[sp].d(T)[sp].[moe]([m5C])p.[moe]([m5C])[sp].[moe]([m5C])}$$$$ (last 3' nucleoside missing)”, the 3 h FOB score was determined as 2 score 0-7. The same measure for “RNA1{[moe]([m5C])[sp].[moe](A)p.[moe](G)p.[moe](G)p.[moe]([m5C])p.d(T)[sp].d(G)[sp].d([m5C])[sp].d(G)[sp].d(G)[sp].d(T)[sp].d(T)[sp].d(G)[sp].d(T)[sp].[moe](T)p.[moe](T)p.[moe]([m5C])[sp].[moe]([m5C])}$$$$ (last 3' nucleoside missing)”: 5 score 0-7; for “RNA1{[moe]([m5C])[sp].[moe](A)p.[moe](G)p.[moe](G)p.d([m5C])[sp].d(T)[sp].d(G)[sp].d([m5C])[sp].d(G)[sp].d(G)[sp].d(T)[sp].d(T)[sp].d(G)[sp].[moe](T)p.[moe](T)p.[moe](T)p.[moe]([m5C])[sp].[moe]([m5C])}$$$$ (last 3' nucleoside missing)”: 4 score 0-7. “RNA1{[moe]([m5C])[sp].[moe](A)p.[moe](G)p.[moe](G)p.d([m5C])[sp].d(T)[sp].d(G)[sp].d([m5C])[sp].d(G)[sp].d(G)[sp].d(T)[sp].d(T)[sp].d(G)[sp].d(T)[sp].[moe](T)p.[moe](T)p.[moe]([m5C])p.[moe]([m5C])[sp].[moe]([m5C])}$$$$ (last 3' nucleoside missing)” gave a 3 h FOB score of 4.75 score 0-7. The same measure for “RNA1{[moe]([m5C])[sp].[moe](G)p.[moe](G)p.[moe]([m5C])[sp].d([m5C])[sp].d([m5C])[sp].d([m5C])[sp].d(T)[sp].d(A)[sp].d(G)[sp].d([m5C])[sp].d(G)[sp].[moe]([m5C])p.[moe](G)p.[moe]([m5C])p.[moe](G)[sp].[moe](A)}$$$$ (last 3' nucleoside missing)”: 7 score 0-7.

As for “RNA1{[moe]([m5C])[sp].[moe](G)p.[moe](G)p.[moe]([m5C])p.[moe]([m5C])p.[moe]([m5C])[sp].d([m5C])[sp].d(T)[sp].d(A)[sp].d(G)[sp].d([m5C])[sp].d(G)[sp].d([m5C])[sp].d(G)[sp].[moe]([m5C])p.[moe](G)[sp].[moe](A)}$$$$ (last 3' nucleoside missing)”, the 3 h FOB score was determined as 4.5 score 0-7. The same measure for “RNA1{[moe]([m5C])[sp].[moe](G)p.[moe](G)p.[moe]([m5C])p.[moe]([m5C])p.[moe]([m5C])p.d([m5C])[sp].d(T)[sp].d(A)[sp].d(G)[sp].d([m5C])[sp].d(G)[sp].d([m5C])[sp].d(G)[sp].d([m5C])[sp].[moe](G)p.[moe](A)[sp].[moe]([m5C])}$$$$ (last 3' nucleoside missing)”: 3 score 0-7; for “RNA1{[moe]([m5C])[sp].[moe](G)p.[moe](G)p.[moe]([m5C])p.[moe]([m5C])p.[moe]([m5C])p.d([m5C])[sp].d(T)[sp].d(A)[sp].d(G)[sp].d([m5C])[sp].d(G)[sp].d([m5C])[sp].d(G)[sp].d([m5C])[sp].d(G)[sp].[moe](A)p.[moe]([m5C])[sp].[moe](T)}$$$$ (last 3' nucleoside missing)”: 1.25 score 0-7; for “RNA1{[moe]([m5C])[sp].[moe](G)p.[moe](G)p.[moe]([m5C])p.[moe]([m5C])p.d([m5C])[sp].d([m5C])[sp].d(T)[sp].d(A)[sp].d(G)[sp].d([m5C])[sp].d(G)[sp].d([m5C])[sp].d(G)[sp].[moe]([m5C])p.[moe](G)p.[moe](A)[sp].[moe]([m5C])}$$$$ (last 3' nucleoside missing)”: 4 score 0-7. Then “RNA1{[moe]([m5C])[sp].[moe](G)p.[moe](G)p.[moe]([m5C])p.d([m5C])[sp].d([m5C])[sp].d([m5C])[sp].d(T)[sp].d(A)[sp].d(G)[sp].d([m5C])[sp].d(G)[sp].d([m5C])[sp].[moe](G)p.[moe]([m5C])p.[moe](G)p.[moe](A)[sp].[moe]([m5C])}$$$$ (last 3' nucleoside missing)”, with 5.25 score 0-7; and “RNA1{[moe]([m5C])[sp].[moe](G)p.[moe](G)p.[moe]([m5C])p.d([m5C])[sp].d([m5C])[sp].d([m5C])[sp].d(T)[sp].d(A)[sp].d(G)[sp].d([m5C])[sp].d(G)[sp].d([m5C])[sp].d(G)[sp].[moe]([m5C])p.[moe](G)p.[moe](A)p.[moe]([m5C])[sp].[moe](T)}$$$$ (last 3' nucleoside missing)”, with 1.75 score 0-7; and “RNA1{[moe]([m5C])[sp].[moe](T)p.[moe](A)p.[moe](G)[sp].d([m5C])[sp].d(G)[sp].d([m5C])[sp].d(G)[sp].d([m5C])[sp].d(G)[sp].d(A)[sp].d([m5C])[sp].[moe](T)p.[moe]([m5C])p.[moe]([m5C])p.[moe](T)[sp].[moe](G)}$$$$ (last 3' nucleoside missing)”, with 3.25 score 0-7. “RNA1{[moe]([m5C])[sp].[moe](T)p.[moe](G)p.[moe](G)p.[moe](T)p.[moe](T)p.[moe](A)p.d(A)[sp].d(T)[sp].d([m5C])[sp].d(T)[sp].d(T)[sp].d(T)[sp].d(A)[sp].d(T)[sp].d([m5C])[sp].d(A)[sp].[moe](G)[sp].[moe](G)}$$$$ (last 3' nucleoside missing)” displayed a 3 h FOB score of 2.25 score 0-7. The same measure for “RNA1{[moe]([m5C])[sp].[moe](T)p.[moe](G)p.[moe](G)p.[moe](T)p.[moe](T)p.d(A)[sp].d(A)[sp].d(T)[sp].d([m5C])[sp].d(T)[sp].d(T)[sp].d(T)[sp].d(A)[sp].d(T)[sp].d([m5C])[sp].[moe](A)p.[moe](G)[sp].[moe](G)}$$$$ (last 3' nucleoside missing)”: 0 score 0-7. Then “RNA1{[moe]([m5C])[sp].[moe](T)p.[moe](G)p.[moe](G)p.d(T)[sp].d(T)[sp].d(A)[sp].d(A)[sp].d(T)[sp].d([m5C])[sp].d(T)[sp].d(T)[sp].d(T)[sp].d(A)[sp].[moe](T)p.[moe]([m5C])p.[moe](A)p.[moe](G)[sp].[moe](G)}$$$$ (last 3' nucleoside missing)”, with 0 score 0-7; and “RNA1{[moe]([m5C])[sp].[moe](T)p.[moe](G)p.[moe]([m5C])p.[moe](G)p.[moe](A)p.[moe](T)p.d([m5C])[sp].d([m5C])[sp].d([m5C])[sp].d([m5C])[sp].d(A)[sp].d(T)[sp].d(T)[sp].d([m5C])[sp].d([m5C])[sp].d(A)[sp].[moe](G)[sp].[moe](T)}$$$$ (last 3' nucleoside missing)”, with 0.25 score 0-7; and “RNA1{[moe]([m5C])[sp].[moe](T)p.[moe](G)p.[moe]([m5C])p.[moe](G)p.[moe](A)p.d(T)[sp].d([m5C])[sp].d([m5C])[sp].d([m5C])[sp].d([m5C])[sp].d(A)[sp].d(T)[sp].d(T)[sp].d([m5C])[sp].d([m5C])[sp].[moe](A)p.[moe](G)[sp].[moe](T)}$$$$ (last 3' nucleoside missing)”, with 0.25 score 0-7.
